Where two headings read alike, the source gives them in different places.
Legend:
Format in all cases: in vivo
[1] = system: spring wheat (Triticum aestivum L; TRZAS); assay: Postemergence herbicidal safening in cereal crops, greenhouse, visual injury: spring wheat; conditions: Triticum aestivum, post-emergence, 480 h, read-out: TRZAS Ob (visual injury)
Protocol: (§1) Evaluation of Postemergence Herbicidal Safening in Cereal Crops
(§2) Seeds of the desired test plant species were planted in Sun Gro MetroMix® 306 planting mixture, which typically has a pH of 6.0 to 6.8 and an organic matter content of about 30 percent, in plastic pots with a surface area of 103.2 square centimeters (cm^2). When required to ensure good germination and healthy plants, a fungicide treatment and/or other chemical or physical treatment was applied. The plants were grown for 7-36 days (d) in a greenhouse with an approximate 14-hour (h) photoperiod which was maintained at about 18° C. during the day and 17° C. during the night. Nutrients and water were added on a regular basis and supplemental lighting was provided with overhead metal halide 1000-Watt lamps as necessary. The plants were employed for testing when they reached the second or third true leaf stage.
(§3) Treatments consisted of the acids or esters of compounds 1-10 and cloquintocet-mexyl (CQC-M), fenchlorazole-ethyl, mefenpyr-diethyl alone and in combination. Weighed amounts of acid or methyl esters of the compounds of formula (I) were dissolved in a volume of 97:3 v/v acetone/dimethylsulfoxide (DMSO) to obtain concentrated solutions. […] The concentrated solutions of the test compound were diluted with the addition of an aqueous mixture containing acetone, water, isopropyl alcohol, DMSO, Agri-Dex crop oil concentrate, and Triton® X-77 surfactant in a 64.7:26.0:6.7:2.0:0.7:0.01 v/v ratio. Test compounds were diluted to the appropriate application rate with a dilution solution which was prepared by mixing the appropriate volume of 97:3 v/v acetone/DMSO and the appropriate volume of an aqueous mixture containing acetone, water, isopropyl alcohol, DMSO, Agri-Dex crop oil concentrate, and Triton® X-77 surfactant in a 64.7:26.0:6.7:2.0:0.7:0.01 v/v ratio. Compound requirements are based upon a 12 mL application volume at a rate of 187 liters per hectare (L/ha). The concentrated solutions of the safener were prepared following the same procedure. Weighed amounts of safener were dissolved in a volume of 97:3 v/v acetone/DMSO to obtain concentrated safener solutions.
(§4) Spray solutions of the herbicide safener and test compound mixtures were prepared by adding the concentrated solutions to the appropriate amount of dilution solution to form 12 mL spray solution with active ingredients in combinations.
(§5) Formulated compounds were applied to the plant material with an overhead Mandel track sprayer equipped with 8002E nozzles calibrated to deliver 187 L/ha over an application area of 0.503 square meters (m^2) at a spray height of 18 inches (43 centimeters (cm)) above average plant canopy. Control plants were sprayed in the same manner with the solvent blank.
(§6) The treated plants and control plants were placed in a greenhouse as described above and watered by sub-irrigation to prevent wash-off of the test compounds. After 20-22 d, the condition of the test plants as compared with that of the control plants was determined visually and scored on a scale of 0 to 100 percent where 0 corresponds to no injury and 100 corresponds to complete kill.
(§7) Colby's equation was used to determine the herbicidal effects expected from the mixtures (Colby, S. R. Calculation of the synergistic and antagonistic response of herbicide combinations. Weeds 1967, 15, 20-22.).
(§8) The following equation was used to calculate the expected activity of mixtures containing two active ingredients, A and B: Expected=A+B−(A×B/100)
(§9) A=observed efficacy of active ingredient A at the same concentration as used in the mixture.
(§10) B=observed efficacy of active ingredient B at the same concentration as used in the mixture.

[2] = system: spring barley (Hordeum vulgare L; HORVS); assay: Postemergence herbicidal safening in cereal crops, greenhouse, visual injury: spring barley; conditions: Hordeum vulgare, post-emergence, 480 h, read-out: HORVS Ob (visual injury)
Protocol: as §1, §2, §3, §4, §5, §6, §7, §8, §9, §10

[3] = system: purple deadnettle (Lamium purpureum L; LAMPU); assay: Postemergence herbicidal activity, greenhouse, visual injury: purple deadnettle; conditions: Lamium purpureum, post-emergence, 480 h, read-out: LAMPU Ob (visual injury)
Protocol: as §1, §2, §3, §4, §5, §6, §7, §8, §9, §10

[4] = system: lamb's-quarters (Chenopodium album L; CHEAL); assay: Postemergence herbicidal activity, greenhouse, visual injury: lamb's-quarters; conditions: safener alone 140 g ae/ha; 20-22 d
Protocol: as §1, §2, §3
Spray solutions of the herbicide safener and test compound mixtures were prepared by adding the concentrated solutions to the appropriate amount of dilution solution to form 12 mL spray solution with active ingredients in combinations. […]
The treated plants and control plants were placed in a greenhouse as described above and watered by sub-irrigation to prevent wash-off of the test compounds. After 20-22 d, the condition of the test plants as compared with that of the control plants was determined visually and scored on a scale of 0 to 100 percent where 0 corresponds to no injury and 100 corresponds to complete kill. […]

[5] = system: winter wheat (Triticum aestivum L; TRZAW); assay: Postemergence herbicidal safening in cereal crops, greenhouse, visual injury: winter wheat; conditions: 20-22 d
Protocol: as §1, §2, §3, §4, §5, §6, §7, §8, §9, §10

[6] = system: winter barley (Hordeum vulgare L; HORVW); assay: Postemergence herbicidal safening in cereal crops, greenhouse, visual injury: winter barley; conditions: 20-22 d
Protocol: as §1, §2, §3, §4, §5, §6, §7, §8, §9, §10

[7] = system: durum wheat (Triticum durum L; TRZDU); assay: Postemergence herbicidal safening in cereal crops, greenhouse, visual injury: durum wheat; conditions: 20-22 d
Protocol: as §1, §2, §3, §4, §5, §6, §7, §8, §9, §10

[8] = system: AMARE; assay: Postemergence herbicidal activity, greenhouse, visual injury: AMARE; conditions: 20-22 d
Protocol: as §1, §2, §3, §4, §5, §6, §7
(§11) The following equation was used to calculate the expected activity of mixtures containing two active ingredients, A and B: Expected=A+B−(A×B/100) […]

[9] = system: GALAP; assay: Postemergence herbicidal activity, greenhouse, visual injury: GALAP; conditions: 20-22 d
Protocol: as §1, §2, §3, §4, §5, §6, §7, §11

[10] = herbicide alone 70 g/ha, 20-22 d
[11] = herbicide alone 140 g/ha, 20-22 d

Structure (SMILES) | pest or weed control at 140 g/ha [1] [%] | pest or weed control at 140 g/ha [2] [%] | pest or weed control at 140 g/ha [3] [%] | CHEAL Ob (visual injury) [4] [%] | pest or weed control at 70 g/ha [1, 10] [%] | pest or weed control at 140 g/ha [1, 11] [%] | pest or weed control at 70 g/ha [2, 10] [%] | pest or weed control at 140 g/ha [2, 11] [%] | TRZAW Ob (visual injury) ([5]; herbicide alone 70 g/ha) [%] | TRZAW Ob (visual injury) ([5]; herbicide alone 140 g/ha) [%] | HORVW Ob (visual injury) ([6]; herbicide alone 70 g/ha) [%] | HORVW Ob (visual injury) ([6]; herbicide alone 140 g/ha) [%] | TRZDU Ob (visual injury) ([7]; herbicide alone 70 g/ha) [%] | TRZDU Ob (visual injury) ([7]; herbicide alone 140 g/ha) [%] | AMARE Ob (visual injury) ([8]; herbicide alone 70 g/ha) [%] | AMARE Ob (visual injury) ([8]; herbicide alone 140 g/ha) [%] | GALAP Ob (visual injury) ([9]; herbicide alone 70 g/ha) [%] | GALAP Ob (visual injury) ([9]; herbicide alone 140 g/ha) [%] | pest or weed control at 70 g/ha [3, 10] [%] | pest or weed control at 140 g/ha [3, 11] [%]
CCOC(=O)C1=NN(c2ccc(Cl)cc2Cl)C(C)(C(=O)OCC)C1 (centres unmarked) [Mefenpyr-diethyl, mefenpyr-diethyl, reference compound] | 0 | 0 | 0 | 0 | – | – | – | – | – | – | – | – | – | – | – | – | – | – | – | –
COc1c(Cl)ccc(-c2nc(N)c(Cl)c(C(=O)O)n2)c1F [Compound 1, 6-amino-5-chloro-2-(4-chloro-2-fluoro-3-methoxyphenyl)pyrimidine-4-carboxylic acid] | – | – | – | – | 25 | 45 | 15 | 30 | 35 | 40 | 15 | 40 | 15 | 35 | 100 | 100 | 95 | 95 | 95 | 99

— patent US9408387B2, “Safening 6-amino-2-(substituted phenyl)-5-substituted-4-pyrimidinecarboxylate herbicide injury on cereal crops” (Dow AgroSciences LLC, priority 2009, dated 2016)
